Legend:
Test in all cases: Substrate depletion assay (UA)
[1] = target: Deinococcus geothermalis uricase, SEQ ID NO: 28 (amino terminal His tag) (Deinococcus geothermalis, UniProt Q1J399); format: biochemical
Method: (§4) Substrate depletion (UA) is another common method for assessing uricase activity. In the substrate depletion assay, uricase, UA, and phosphate buffer were incubated for 1 hour at the stated temperature (typically 30° C.). […] In some assays 1 mM DTT was added to the assay. The Molecular Devices reader temperature was set to the 30° C. Absorbance measurements at 292 nm were captured every 20 seconds for a period of 10 minutes. The rate of UA degradation was calculated by SoftMax Pro software. Vmax and Km were calculated for these uricases (see Table 5 below).

[2] = test system: Krystexxa (pegloticase), PEGylated chimeric pig/baboon uricase; format: biochemical, pig and baboon (chimera); conditions: PB, pH 7.4, typically 30° C.; UA 23.8-400 μM; 292 nm
Method: Five uricases (SEQ ID NOs: 27, 28, 29, 32, and 34) were evaluated for neutral pH solubility characteristics and activity in terms of product formation (H2O2) at pH 9.0 and 7.4. In the product formation assay, allantoin formation is proportional to H2O2 formation, which is linked to colorimetric horseradish peroxidase-catalyzed, colorimetric reaction. The appearance of hydrogen peroxide can be measured by an increase in absorbance at 540 nm. Product formation assays were proportional to substrate depletion assays in terms of uricase activity. […] The substrate depletion assays were much better for assessing kinetic parameters like Vmax and Km.
Substrate depletion (UA) is another common method for assessing uricase activity. In the substrate depletion assay, uricase, UA, and phosphate buffer were incubated for 1 hour at the stated temperature (typically 30° C.). Uricase was then diluted to 1 μg/mL and combined with a curve of UA (400 μM diluted down 1:1.6 to 23.8 μM) in 0.1M phosphate buffer (PB), pH 7.4. In some assays 1 mM DTT was added to the assay. The Molecular Devices reader temperature was set to the 30° C. Absorbance measurements at 292 nm were captured every 20 seconds for a period of 10 minutes. The rate of UA degradation was calculated by SoftMax Pro software. Vmax and Km were calculated for these uricases (see Table 5 below). […]

[3] = target: T1, Arthrobacter globiformis uricase, wt, SEQ ID NO: 27 (amino terminal His tag) (Arthrobacter globiformis, UniProt D0VWQ1); format: biochemical
T1 sequence (D0VWQ1 1-302): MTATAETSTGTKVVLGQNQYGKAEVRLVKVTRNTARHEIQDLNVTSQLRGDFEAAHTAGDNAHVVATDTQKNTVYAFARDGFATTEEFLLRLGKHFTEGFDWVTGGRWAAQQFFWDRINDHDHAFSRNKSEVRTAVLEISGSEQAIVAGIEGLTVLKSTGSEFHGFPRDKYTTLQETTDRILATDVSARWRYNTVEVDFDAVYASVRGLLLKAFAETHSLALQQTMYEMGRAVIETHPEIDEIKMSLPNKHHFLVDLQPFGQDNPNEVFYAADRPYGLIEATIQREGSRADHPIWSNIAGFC
Method: (§1) An initial screening paradigm was used to identify candidates for further optimization. The 8 uricase sequences described in Example 1 were cloned with an amino terminal His tag and expressed in E. coli. Each uricase construct was evaluated for expression level and in particular, soluble expression. Uricase expressing E. coli were lysed and soluble material was separated from insoluble (pellet) material. The lysates were separated by SDS-PAGE and the proteins were visualized by Coomassie blue staining. […] The pig-baboon chimera appears to express almost entirely in the pellet (P) (insoluble) fraction (FIG. 1, Lane 9). Cytosolic soluble (S) expression was considered a favorable property. […] Protein yield was determined by measuring the absorbance at 280 nm. […]
(§2) Five uricases (SEQ ID NOs: 27, 28, 29, 32, and 34) were evaluated for neutral pH solubility characteristics and activity in terms of product formation (H2O2) at pH 9.0 and 7.4. […] The appearance of hydrogen peroxide can be measured by an increase in absorbance at 540 nm. […]
(§3) Substrate depletion (UA) is another common method for assessing uricase activity. […] The Molecular Devices reader temperature was set to the 30° C. Absorbance measurements at 292 nm were captured every 20 seconds for a period of 10 minutes. The rate of UA degradation was calculated by SoftMax Pro software. Vmax and Km were calculated for these uricases (see Table 5 below). […]

[4] = test system: Consensus uricase, SEQ ID NO: 34 (amino terminal His tag); format: biochemical; conditions: PB, pH 7.4, typically 30° C.; UA 23.8-400 μM; 292 nm
Excerpt: After this process, the following 7 candidate sequences were chosen for further investigation: Arthrobacter globiformis uricase (SEQ ID NO: 27), Deinococcus geothermalis uricase (SEQ ID NO: 28), Deinococcus radiodurans uricase (SEQ ID NO: 29), Granulicella tundricola uricase (SEQ ID NO: 30), Solibacter usitatus uricase (SEQ ID NO: 31), Terriglobus saanensis uricase (SEQ ID NO: 32) and Kyrpidia tusciae uricase (SEQ ID NO: 33). Additionally, as an 8th sequence, a consensus uricase sequence was also devised from the alignment of many uricase sequences. The consensus sequence is represented by SEQ ID NO: 34.
An initial screening paradigm was used to identify candidates for further optimization. […] Each uricase construct was evaluated for expression level and in particular, soluble expression. […] Protein yield was determined by measuring the absorbance at 280 nm. […]
as §2
Substrate depletion (UA) is another common method for assessing uricase activity. […] The Molecular Devices reader temperature was set to the 30° C. Absorbance measurements at 292 nm were captured every 20 seconds for a period of 10 minutes. […]

[5] = test system: O=c1[nH]c(=O)c2[nH]c(=O)[nH]c2[nH]1; format: biochemical, Deinococcus geothermalis; conditions: other: PB, pH 7.4, typically 30° C., UA 23.8-400 μM, 292 nm
Method: as §4

[6] = substrate: O=c1[nH]c(=O)c2[nH]c(=O)[nH]c2[nH]1; format: biochemical, Arthrobacter globiformis
Method: as §1, §2, §3

[7] = substrate: O=c1[nH]c(=O)c2[nH]c(=O)[nH]c2[nH]1; format: biochemical, Deinococcus radiodurans; conditions: other: PB, pH 7.4, typically 30° C., UA 23.8-400 μM, 292 nm
Method: as §1, §2, §3

[8] = substrate: O=c1[nH]c(=O)c2[nH]c(=O)[nH]c2[nH]1; format: biochemical, Terriglobus saanensis; conditions: other: PB, pH 7.4, typically 30° C., UA 23.8-400 μM, 292 nm
Method: as §1, §2, §3

Molecule: O=c1[nH]c(=O)c2[nH]c(=O)[nH]c2[nH]1 [UA, uric acid]
- Vmax ([1]; compared with Krystexxa): 10.8
- better kcat/Km relative to Krystexxa ([1]; ratio to Krystexxa): ~2 fold
- improved Vmax relative to Krystexxa ([1]; ratio to Krystexxa (10.8 versus 5.7)): 2 fold
- Km [2]: 116 µM
- Vmax [2]: 5.7
- better kcat/Km relative to Krystexxa ([3]; ratio to Krystexxa): ~2 fold
- better Km relative to Krystexxa ([3]; ratio to Krystexxa (55.7 versus 116.3)): 2 fold
- Km [4]: 31.8 µM

Molecule: Deinococcus geothermalis uricase, SEQ ID NO: 28 (amino terminal His tag) (Deinococcus geothermalis DSM 11300)
- Km [5]: 55.7 µM

B1: Arthrobacter globiformis uricase, wt, SEQ ID NO: 27 (amino terminal His tag) (Arthrobacter globiformis) (protein)
chain: MTATAETSTGTKVVLGQNQYGKAEVRLVKVTRNTARHEIQDLNVTSQLRGDFEAAHTAGDNAHVVATDTQKNTVYAFARDGFATTEEFLLRLGKHFTEGFDWVTGGRWAAQQFFWDRINDHDHAFSRNKSEVRTAVLEISGSEQAIVAGIEGLTVLKSTGSEFHGFPRDKYTTLQETTDRILATDVSARWRYNTVEVDFDAVYASVRGLLLKAFAETHSLALQQTMYEMGRAVIETHPEIDEIKMSLPNKHHFLVDLQPFGQDNPNEVFYAADRPYGLIEATIQREGSRADHPIWSNIAGFC
- Km ([6]; other: PB, pH 7.4, typically 30° C., UA 23.8-400 μM, 292 nm, pH 7.4): 110 µM
- Km ([6]; other: restated in text, compared with Krystexxa, 30.0 °C): 55.7 µM

B2: Deinococcus radiodurans uricase, SEQ ID NO: 29 (amino terminal His tag) (Deinococcus radiodurans R1 = ATCC 13939 = DSM 20539) (protein)
chain: MMTGTQQPGTQPKVKVRLGENNYGKAEVQLMKIKRGTPRHELREAKVRVAMYGDFGAAHSEGDNTDLVATDTVRNTVYGLAKEGFESSIEEFGKELLTHFVKVGPRVTGGFAEFTEHLWERVQTPAQPQGHDHAFVRQMPKRTARVETQDGRRFTVTSGIEELYVLKTTESGWENYLLDERFTTLPETHDRVMATFVTAKWEYAVESCDYDAVWERVYRQIQHTFTDHYSPSLQRTLYLMGEAVLSVCPEISRIWFQMPNKHHLVYNLGRFGLENNNEILHVDPEPYGLMEAWVERAE
- Km [7]: 83.1 µM

B3: Terriglobus saanensis uricase, SEQ ID NO: 32 (amino terminal His tag) (Terriglobus saanensis SP1PR4) (protein)
chain: MAKLIDSRYGKARVRVMKLDRSQPQHQLLEWTVRVLLEGDFETAHTVGDNSNILPTDTMKNTVYSRAKESKAETPEEFAIELAEFLLGRNPQVHTVEVKIETAMWKRLVVDGKPHGSSFMRGSDELGTVLHHATRETKTMVCGVENMVILKSQNSSFEGYIQDDLTTLKPTADRLFATAMTADWDYTDGGSAFAARREAIREAMLKAFAEHDSKSVQQTLYAMAEAAMAAVPAVNRVHMVMPNKHCLLVDLKHFGQENNNEIFVPTEDPHGYIEATVVRE
- Km [8]: 76.2 µM

Reference: patent publication US10883087B2, “Uricase sequences and methods of treatment” (MedImmune, LLC, priority 2015, dated 2021)
